Measured values taken from US20100144793A1, “NOVEL COMPOUNDS FOR THE TREATMENT OF DISEASES ASSOCIATED WITH AMYLOID OR AMYLOID-LIKE PROTEINS” (AC IMMUNE SA, priority 2006, published 2010).
Structures can show the parent of a compound that is named as a salt. Where two headings read alike, the source gives them in different places.

How the values were obtained:
Aβ1-42 = biological target: T1, Aβ1-42 (Homo sapiens, UniProt P05067); assay: Thioflavin T spectrofluorescence assay: inhibition of Aβ1-42 aggregation; format: biochemical
T1 construct: Aβ1-42 lyophilized powder (Bachem) was reconstituted in hexafluoroisopropanol (HFIP) to 1 mM; purchased Bachem
Protocol: (§1) The objective of this example was to evaluate the capacity of the compounds of the invention to inhibit the aggregation of (Aβ)1-42 peptide and to disaggregate pre-aggregated Aβ1-42 using a thioflavin T spectrofluorescence assay.
(§2) Aβ1-42 lyophilized powder (Bachem) was reconstituted in hexafluoroisopropanol (HFIP) to 1 mM. The peptide solution was sonicated for 15 min at room temperature, agitated overnight, and aliquots were placed into non-siliconized microcentrifuge tubes. The HFIP was then evaporated under a stream of argon. The resulting peptide film was dried under vacuum for 10 min, tightly sealed and stored at −80° C. until used.
Aβ1-42 peptide film was dissolved in DMSO to reach 400 μM. Assay solution in PBS was prepared in non-siliconized incubation tubes to reach the following concentrations: 330 μM small molecule, 33 μM Aβ1-42, 10 μM thioflavin T (ThT), and 12.8% DMSO. Therefore, the final molar ratio of small molecule to Aβ1-42 was 10:1. A positive control without a small molecule was prepared to measure maximum RFU. A negative control without Aβ1-42 was prepared for each small molecule. 3-aminopyrazole trimer (Trimer) was tested in all assays to ascertain reproducibility between independent experiments. The solutions were then incubated for 24 h at 37° C., and the spectrofluorescence (relative fluorescence units; RFU) read in six replicates in black 384-well assay plates (Perkin-Elmer) on a Perkin-Elmer FluoroCount spectrofluorometer. Inhibition of aggregation is expressed as mean % inhibition±1 standard deviation (SD) according to the following equation: […]

preformed Aβ1-42 fibers = biological target: T2, preformed Aβ1-42 fibers (Homo sapiens, UniProt P05067); assay: Thioflavin T spectrofluorescence assay: disaggregation of preformed Aβ1-42 fibers; format: biochemical; conditions: Table 5; 330 μM small molecule, 10:1 molar ratio to pre-aggregated Aβ1-42, additional 24 h at 37° C.; mean ± SD of two independent experiments
T2 construct: Aβ1-42 lyophilized powder (Bachem) was reconstituted in hexafluoroisopropanol (HFIP) to 1 mM; purchased Bachem
Protocol: as §1, §2
This solution was then allowed to aggregate at 37° C. for 24 h after which a small molecule and ThT were added to obtain a final concentration of 330 μM small molecule and 10 μM ThT. […] This solution was then incubated for additional 24 h at 37° C. The spectrofluorescence was then measured and % disaggregation calculated. Disaggregation is expressed as mean % disaggregation±1 standard deviation (SD) according to the same equation as for the inhibition of aggregation.

[1] = biological target: T3, Oregon Green labeled Aβ(1-42) (Homo sapiens, UniProt P05067); assay: FCS-assay with 5 nM Oregon Green labeled Aβ-peptide (disaggregation of preformed aggregates); format: biochemical
T3 construct: DMSO-stock solutions of Oregon Green labeled Aβ(1-42) 1:1 with deionized water
Protocol: In order to analyse the disaggregating properties of the compounds, preformed aggregates were used, which were induced straight before the FCS-measurement by diluting low concentrated (500 nM) DMSO-stock solutions of Oregon Green labeled Aβ(1-42) 1:1 with deionized water. The final concentration of Oregon Green labeled Aβ-peptide was 5 nM in 1×PBS and 3% DMSO.
To improve the reproducibility of the measurements of the concentration dependencies all samples were prepared fourfold.

[2] = read-out: Percentage of the “number of peaks” value compared to the control reaction without added ligand
[3] = read-out: Percentage of the “peaks × height“ value compared to the control reaction without added ligand
[4] = Table 3, 10:1 small molecule to Aβ1-42 molar ratio, 24 h at 37° C., mean ± SD of two independent experiments, read-out: % Inhibition

T1 sequence (P05067 672-713 limits assumed): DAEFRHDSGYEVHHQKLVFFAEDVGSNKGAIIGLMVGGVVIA
T3 sequence (P05067 672-713 limits assumed): as above
T2 sequence (P05067 672-713 limits assumed): as above

| SMILES | melting point | inhibition at 330 µM (Aβ1-42; [4]) | also measured |
| --- | --- | --- | --- |
| Cc1ccc(-c2cc(NCCNc3cc(-c4ccc(Cl)cc4)[nH]n3)n[nH]2)cc1 [Compound 1ae, N-(5-(4-Chlorophenyl)-1H-pyrazol-3-yl)-N′-(5-p-tolyl-1H-pyrazol-3-yl)ethane-1,2-diamine bishydrochloride] |  |  | inhibition at 330 µM (Aβ1-42; 24 h): 83.7 ± 1.7%; % disaggregation (preformed Aβ1-42 fibers): 76.0 ± 2.1%; remaining activity at 0.01 µM [1, 2]: 72.3%; remaining activity at 0.1 µM [1, 2]: 59.8%; remaining activity at 0.2 µM [1, 2]: 45.5%; remaining activity at 0.01 µM [1, 3]: 65.5%; remaining activity at 0.1 µM [1, 3]: 60.4%; remaining activity at 0.2 µM [1, 3]: 53.1% |
| Cc1ccc(-c2cc(NCc3ccc(CNc4cc(-c5ccc(C)cc5)[nH]n4)cc3)n[nH]2)cc1 (as salt: hydrochloride) [Compound 1ap, N,N′-(1,4-Phenylenebis(methylene))bis(5-p-tolyl-1H-pyrazol-3-amine) dihydrochloride] | 184 °C |  |  |
| Cc1ccc(-c2cc(NCc3cccc(CNc4cc(-c5ccc(C)cc5)[nH]n4)c3)n[nH]2)cc1 (as salt: hydrochloride) [Compound 1ao, N,N′-(1,3-Phenylenebis(methylene))bis(5-p-tolyl-1H-pyrazol-3-amine) dihydrochloride] | 183 °C |  |  |
| Cc1ccc(-c2cc(NC(=O)CNc3cc(-c4cccs4)[nH]n3)n[nH]2)cc1 [Compound 1z, 2-(5-(Thiophen-2-yl)-1H-pyrazol-3-ylamino)-N-(5-p-tolyl-1H-pyrazol-3-yl)acetamide] | 227 °C | 22.1 ± 12.5% |  |
| c1csc(-c2cc(NCCNc3cc(-c4cccs4)[nH]n3)n[nH]2)c1 (as salt: hydrochloride) [Compound 1h, N^1,N^2-bis(5-(2-Thienyl)-1H-pyrazol-3-yl)ethane-1,2-diamine bishydrochloride] | 147 °C |  |  |
| Cc1ccc(-c2cc(NC(=O)CNc3cc(-c4ccc(Cl)cc4)[nH]n3)n[nH]2)cc1 [Compound 1ad, 2-(5-(4-Chlorophenyl)-1H-pyrazol-3-ylamino)-N-(5-p-tolyl-1H-pyrazol-3-yl)acetamide] | 251 °C | 55 ± 11.9% |  |
| c1[nH]nc(NCCNc2n[nH]cc2C2CC2)c1C1CC1 (as salt: hydrochloride) [Compound 1v, N^1,N^2-bis(4-Cyclopropyl-1H-pyrazol-3-yl)ethane-1,2-diamine bishydrochloride] | 178 to 182 °C (dec.) |  |  |
| COc1ccc(-c2cc(NCCNc3cc(-c4ccc(OC)cc4)[nH]n3)n[nH]2)cc1 [Compound 1g, N^1,N^2-bis(5-(4-Methoxyphenyl)-1H-pyrazol-3-yl)ethane-1,2-diamine bishydrochloride] |  |  | inhibition at 330 µM (Aβ1-42; 24 h): 68.2 ± 7.7%; % disaggregation (preformed Aβ1-42 fibers): 66.6 ± 4.2% |
| c1c(NCCNc2cc(C3CC3)[nH]n2)n[nH]c1C1CC1 (as salt: hydrochloride) [Compound 1i, N^1,N^2-bis(5-Cyclopropyl-1H-pyrazol-3-yl)ethane-1,2-diamine bishydrochloride] | 205 to 206 °C |  |  |
| Clc1ccc(-c2cc(NCCNc3cc(-c4cccs4)[nH]n3)n[nH]2)cc1 (as salt: hydrochloride) [Compound 1ah, N-(5-(4-Chlorophenyl)-1H-pyrazol-3-yl)-N′-(5-(thiophen-2-yl)-1H-pyrazol-3-yl)ethane-1,2-diamine bishydrochloride] | 139 °C |  |  |
| c1ccc(-c2cc(NCCNc3cc(-c4ccccn4)[nH]n3)n[nH]2)nc1 (as salt: hydrochloride) [Compound 1al, N^1,N^2-bis(5-(Pyridin-2-yl)-1H-pyrazol-3-yl)ethane-1,2-diamine tetra-hydrochloride] | > 250 °C |  |  |
| Cc1ccc(-c2cc(NCC(C)(C)CNc3cc(-c4ccc(C)cc4)[nH]n3)n[nH]2)cc1 (as salt: hydrochloride) [Compound 1an, dihydrochloride] | 151 °C |  |  |
| c1ccc(Cc2cc(NCCNc3cc(Cc4ccccc4)[nH]n3)n[nH]2)cc1 (as salt: hydrochloride) [Compound 1l, N^1,N^2-bis(5-Benzyl-1H-pyrazol-3-yl)ethane-1,2-diamine dihydrochloride] | 177 to 178 °C |  |  |
| c1ccc(-c2cc(NCCNc3cc(-c4ccccc4)[nH]n3)n[nH]2)cc1 (as salt: hydrochloride) [Compound 1e, N^1,N^2-bis(5-Phenyl)-1H-pyrazol-3-yl)ethane-1,2-diamine bishydrochloride] | 204 °C |  |  |
| Cc1ccc(-c2cc(NCC(=O)Nc3cc(C)[nH]n3)n[nH]2)cc1 [Compound 1x, N-(5-Methyl-1H-pyrazol-3-yl)-2-(5-p-tolyl-1H-pyrazol-3-ylamino)acetamide] | 180 °C | 35.9 ± 4.7% |  |
| O=C(CNc1cc(-c2cccs2)[nH]n1)Nc1cc(-c2ccc(Cl)cc2)[nH]n1 [Compound 1af, 2-(5-(Thiophen-2-yl)-1H-pyrazol-3-ylamino)-N-(5-(4-chlorophenyl)-1H-pyrazol-3-yl)acetamide] | 233 °C | 37.6 ± 10.4% |  |
| Fc1ccc(-c2cc(NCCNc3cc(-c4ccc(F)cc4)[nH]n3)n[nH]2)cc1 (as salt: hydrochloride) [Compound 1ak, N^1,N^2-bis(5-(4-Fluorophenyl)-1H-pyrazol-3-yl)ethane-1,2-diamine bishydrochloride] | 239 to 240 °C |  |  |
| c1ccc(-c2ccc(-c3cc(NCCNc4cc(-c5ccc(-c6ccccc6)cc5)[nH]n4)n[nH]3)cc2)cc1 (as salt: hydrochloride) [Compound 1am, N^1-(5-(Biphenyl-4-yl)-1H-pyrazol-3-yl)-N^2-(3-(biphenyl-4-yl)-1H-pyrazol-5-yl)ethane-1,2-diamine bishydrochloride] | 220 to 222 °C |  |  |
| FC(F)(F)c1cccc2[nH]nc(NCCNc3n[nH]c4cccc(C(F)(F)F)c34)c12 (as salt: hydrochloride) [Compound 1ai, N,N′-bis(4-(Trifluoromethyl)-1H-indazol-3-yl)ethane-1,2-diamine bishydrochloride] | 222 °C |  |  |
| c1coc(-c2cc(NCCNc3cc(-c4ccco4)[nH]n3)n[nH]2)c1 (as salt: hydrochloride) [Compound 1m, N^1,N^2-bis(5-(2-Furyl)-1H-pyrazol-3-yl)ethane-1,2-diamine bishydrochloride] | 214 to 216 °C |  |  |
| Clc1ccc(-c2cc(NCCNc3cc(-c4ccc(Cl)cc4)[nH]n3)n[nH]2)cc1 (as salt: hydrochloride) [Compound 1f, N^1,N^2-bis(5-(4-Chlorophenyl)-1H-pyrazol-3-yl)ethane-1,2-diamine bishydrochloride] | 195 °C |  |  |
| Cc1ccc(-c2cc(NCC(=O)Nc3cc(-c4cccs4)[nH]n3)n[nH]2)cc1 [Compound 1aa, N-(5-(Thiophen-2-yl)-1H-pyrazol-3-yl)-2-(5-p-tolyl-1H-pyrazol-3-ylamino)acetamide] | 246 °C | 50.4 ± 0.9% |  |
| Cc1ccc(-c2cc(NCC(=O)Nc3cc(-c4ccc(C)cc4)[nH]n3)n[nH]2)cc1 [Compound 1y, N-(5-p-Tolyl-1H-pyrazol-3-yl)-2-(5-p-tolyl-1H-pyrazol-3-ylamino)acetamide] | 238 °C | 30.7 ± 3.8% |  |
| Clc1ccc(-c2c[nH]nc2NCCNc2n[nH]cc2-c2ccc(Cl)cc2)cc1 (as salt: hydrochloride) [Compound 1s, N^1,N^2-bis(4-(4-Chlorophenyl)-1H-pyrazol-3-yl)ethane-1,2-diamine bishydrochloride] | 228 °C |  |  |
| O=C(CNc1cc(-c2ccc(Cl)cc2)[nH]n1)Nc1cc(-c2cccs2)[nH]n1 [Compound 1ag, N-(5-(Thiophen-2-yl)-1H-pyrazol-3-yl)-2-(5-(4-chlorophenyl)-1H-pyrazol-3-ylamino)acetamide] | 257 °C | 20.8 ± 5.7% |  |
| Cc1ccc(-c2cc(NCC(=O)Nc3cc(-c4ccc(Cl)cc4)[nH]n3)n[nH]2)cc1 [Compound 1ac, N-(5-(4-Chlorophenyl)-1H-pyrazol-3-yl)-2-(5-p-tolyl-1H-pyrazol-3-ylamino)acetamide] | 257 °C | 12.4 ± 5.1% |  |
